Reference: ChEMBL document CHEMBL4340506, “Inhibition of a viral prolyl hydroxylase” (Bioorg Med Chem, 2019)
The source made the active and inactive calls. The rule behind the calls is not given here. Where a SMILES comes first, the peptide text is derived from it. [ ]: non-standard residue; d: D form. Hyp = O=C(O)[C@@H]1C[C@@H](O)CN1

Key:
Prolyl 4-hydroxylase = molecular target: T1, Prolyl 4-hydroxylase (Paramecium bursaria Chlorella virus 1, UniProt Q84406); test: Inhibition of N-terminal His6-tagged recombinant Paramecium bursaria chlorella virus 1 CPH expressed in Escherichia coli Rosetta 2 (DE3) cells pre-incubated for 5 mins before 2OG as substrate and Fe2 as co-factor addition in presence of L-ascorbate and measured after 5 mins MALDI TOF MS analysis
T1 sequence (Q84406 whole entry): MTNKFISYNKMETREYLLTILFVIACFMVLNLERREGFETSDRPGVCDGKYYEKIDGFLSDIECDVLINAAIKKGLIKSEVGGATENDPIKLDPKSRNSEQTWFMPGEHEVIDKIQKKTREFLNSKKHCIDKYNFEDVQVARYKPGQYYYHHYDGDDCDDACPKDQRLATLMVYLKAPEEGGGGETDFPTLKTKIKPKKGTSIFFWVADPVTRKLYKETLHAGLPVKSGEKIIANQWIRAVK

Egl nine homolog 1 = Egl nine homolog 1 (Homo sapiens, UniProt Q9GZT9); test: Inhibition of recombinant human PHD2 by alphascreen assay
Egl nine homolog 1, sequence (Q9GZT9 whole entry): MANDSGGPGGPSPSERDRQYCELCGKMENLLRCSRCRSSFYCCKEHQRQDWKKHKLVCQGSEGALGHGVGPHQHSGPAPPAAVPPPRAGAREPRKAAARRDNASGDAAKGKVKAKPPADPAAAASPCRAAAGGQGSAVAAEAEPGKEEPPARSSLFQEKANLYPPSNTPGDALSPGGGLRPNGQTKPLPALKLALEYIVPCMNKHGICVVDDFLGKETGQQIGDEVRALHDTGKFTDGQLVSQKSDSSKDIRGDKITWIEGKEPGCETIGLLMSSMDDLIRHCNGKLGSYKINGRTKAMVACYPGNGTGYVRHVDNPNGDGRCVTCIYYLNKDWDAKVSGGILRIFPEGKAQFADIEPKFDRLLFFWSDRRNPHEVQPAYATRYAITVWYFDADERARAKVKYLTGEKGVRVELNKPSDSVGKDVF

[1] = molecular target: T2, Prolyl 4-hydroxylase (Paramecium bursaria Chlorella virus 1) (UniProt Q84406); test: (§1) Substrate activity at N-terminal His6-tagged recombinant Paramecium bursaria chlorella virus 1 CPH expressed in Escherichia coli Rosetta 2 (DE3) cells assessed as succinate production at 500 uM incubated for 60 s in presence of 2OG and L-ascorbate and using Fe2 as cofactor by 1H NMR spectroscopy
T2 sequence (whole entry): T1 sequence (Q84406 whole entry)

[2] = molecular target: T2, Prolyl 4-hydroxylase (Paramecium bursaria Chlorella virus 1); test: as §1, with “2OG and in absence of L-ascorbate and” for “2OG and L-ascorbate and”
[3] = molecular target: T2, Prolyl 4-hydroxylase (Paramecium bursaria Chlorella virus 1); test: Substrate activity at N-terminal His6-tagged recombinant Paramecium bursaria chlorella virus 1 CPH expressed in Escherichia coli Rosetta 2 (DE3) cells assessed as substrate hydroxylation at 100 uM incubated for 16 hrs in presence of 2OG by MALDI TOF MS analysis
[4] = molecular target: T2, Prolyl 4-hydroxylase (Paramecium bursaria Chlorella virus 1); test: Substrate activity at N-terminal His6-tagged recombinant Paramecium bursaria chlorella virus 1 CPH expressed in Escherichia coli Rosetta 2 (DE3) cells assessed as substrate hydroxylation up to 1 mM incubated for 16 hrs in presence of 2OG by MALDI TOF MS analysis
[5] = molecular target: Hypoxia-inducible factor 1-alpha inhibitor (Homo sapiens, UniProt Q9NWT6); test: Inhibition of recombinant human FIH using 2OG as substrate and Fe2 as co-factor assessed as hydroxylation incubated for 15 mins in presence of L-ascorbate by LC-MS analysis
Hypoxia-inducible factor 1-alpha inhibitor, sequence (Q9NWT6 whole entry): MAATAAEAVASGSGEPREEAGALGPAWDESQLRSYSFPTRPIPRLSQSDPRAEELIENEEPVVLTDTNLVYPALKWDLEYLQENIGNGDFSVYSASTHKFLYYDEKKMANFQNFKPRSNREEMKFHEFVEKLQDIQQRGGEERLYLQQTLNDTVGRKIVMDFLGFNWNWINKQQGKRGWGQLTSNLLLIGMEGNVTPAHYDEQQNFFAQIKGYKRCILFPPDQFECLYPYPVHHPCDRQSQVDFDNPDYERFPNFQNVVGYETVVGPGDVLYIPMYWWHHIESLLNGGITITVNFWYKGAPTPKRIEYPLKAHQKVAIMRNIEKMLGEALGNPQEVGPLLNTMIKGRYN

[6] = molecular target: T3, Prolyl 3-hydroxylase OGFOD1 (Homo sapiens, UniProt Q8N543); test: Inhibition of recombinant human OGFOD1 using 2OG as substrate and Fe2 as co-factor assessed as hydroxylation incubated for 15 mins in presence of L-ascorbate by MALDI-TOF MS analysis
T3 sequence (Q8N543 whole entry): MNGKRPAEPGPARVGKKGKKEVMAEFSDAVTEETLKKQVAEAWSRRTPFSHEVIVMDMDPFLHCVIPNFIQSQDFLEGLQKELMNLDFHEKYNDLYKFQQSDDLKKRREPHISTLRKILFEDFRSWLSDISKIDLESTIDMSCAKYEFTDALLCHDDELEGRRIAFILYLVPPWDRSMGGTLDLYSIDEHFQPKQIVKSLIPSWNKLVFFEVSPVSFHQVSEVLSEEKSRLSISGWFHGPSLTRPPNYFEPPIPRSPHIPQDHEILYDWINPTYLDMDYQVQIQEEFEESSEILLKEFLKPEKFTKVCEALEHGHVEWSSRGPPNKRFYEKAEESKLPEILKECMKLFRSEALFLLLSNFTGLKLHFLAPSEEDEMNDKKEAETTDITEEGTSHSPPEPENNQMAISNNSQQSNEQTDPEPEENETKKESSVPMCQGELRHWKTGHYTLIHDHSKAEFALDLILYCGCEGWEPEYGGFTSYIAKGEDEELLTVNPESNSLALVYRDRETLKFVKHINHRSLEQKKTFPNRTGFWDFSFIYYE

[7] = molecular target: T2, Prolyl 4-hydroxylase (Paramecium bursaria Chlorella virus 1); test: Substrate activity at N-terminal His6-tagged recombinant Paramecium bursaria chlorella virus 1 CPH expressed in Escherichia coli Rosetta 2 (DE3) cells assessed as substrate hydroxylation incubated for 16 hrs in presence of 2OG and in absence of L-ascorbate by MALDI TOF MS analysis
[8] = molecular target: T2, Prolyl 4-hydroxylase (Paramecium bursaria Chlorella virus 1); test: Substrate activity at N-terminal His6-tagged recombinant Paramecium bursaria chlorella virus 1 CPH expressed in Escherichia coli Rosetta 2 (DE3) cells assessed as succinate production at 500 uM incubated for 60 s in presence of 2OG and using Fe2 as cofactor by 1H NMR spectroscopy
[9] = compound: C[C@H](NC(=O)[C@@H]1CCCN1)C(=O)N1CCC[C@H]1C(=O)N[C@@H](CCCCN)C(=O)N1C[C@H](O)C[C@H]1C(=O)N[C@@H](C)C(=O)N1CCC[C@H]1C(=O)N[C@@H](CCCCN)C(=O)O; test: Substrate activity at N-terminal His6-tagged recombinant Paramecium bursaria chlorella virus 1 CPH expressed in Escherichia coli Rosetta 2 (DE3) cells assessed as substrate Kcat incubated for 16 hrs in presence of 2OG by MALDI TOF MS analysis
[10] = compound: C[C@H](NC(=O)[C@@H]1CCCN1)C(=O)N1CCC[C@H]1C(=O)N[C@@H](CCCCN)C(=O)N1C[C@H](O)C[C@H]1C(=O)N[C@@H](C)C(=O)N1CCC[C@H]1C(=O)N[C@@H](CCCCN)C(=O)O; test: Substrate activity at N-terminal His6-tagged recombinant Paramecium bursaria chlorella virus 1 CPH expressed in Escherichia coli Rosetta 2 (DE3) cells assessed as substrate Km incubated for 16 hrs in presence of 2OG by MALDI TOF MS analysis
[11] = compound: C[C@H](NC(=O)[C@@H]1CCCN1)C(=O)N1CCC[C@H]1C(=O)N[C@@H](CCCCN)C(=O)N1C[C@H](O)C[C@H]1C(=O)N[C@@H](C)C(=O)N1CCC[C@H]1C(=O)N[C@@H](CCCCN)C(=O)O; test: (§2) Substrate activity at N-terminal His6-tagged recombinant Paramecium bursaria chlorella virus 1 CPH expressed in Escherichia coli Rosetta 2 (DE3) cells assessed as Km(app) for Fe2 incubated for 16 hrs in presence of 2OG and Fe2 by MALDI TOF MS analysis
[12] = compound: C[C@H](NC(=O)[C@@H]1CCCN1)C(=O)N1C[C@H](O)C[C@H]1C(=O)N[C@@H](CCCCN)C(=O)N1CCC[C@H]1C(=O)N[C@@H](C)C(=O)N1CCC[C@H]1C(=O)N[C@@H](CCCCN)C(=O)O; test: as §2
[13] = compound: C[C@H](NC(=O)[C@@H]1CCCN1)C(=O)N1CCC[C@H]1C(=O)N[C@@H](CCCCN)C(=O)N1C[C@H](O)C[C@H]1C(=O)N[C@@H](C)C(=O)N1CCC[C@H]1C(=O)N[C@@H](CCCCN)C(=O)O; test: (§3) Substrate activity at N-terminal His6-tagged recombinant Paramecium bursaria chlorella virus 1 CPH expressed in Escherichia coli Rosetta 2 (DE3) cells assessed as Km for 2OG incubated for 16 hrs in presence of 2OG and Fe2 by MALDI TOF MS analysis
[14] = compound: C[C@H](NC(=O)[C@@H]1CCCN1)C(=O)N1C[C@H](O)C[C@H]1C(=O)N[C@@H](CCCCN)C(=O)N1CCC[C@H]1C(=O)N[C@@H](C)C(=O)N1CCC[C@H]1C(=O)N[C@@H](CCCCN)C(=O)O; test: as §3
[15] = compound: C[C@H](NC(=O)[C@@H]1CCCN1)C(=O)N1CCC[C@H]1C(=O)N[C@@H](CCCCN)C(=O)N1C[C@H](O)C[C@H]1C(=O)N[C@@H](C)C(=O)N1CCC[C@H]1C(=O)N[C@@H](CCCCN)C(=O)O; test: (§4) Substrate activity at N-terminal His6-tagged recombinant Paramecium bursaria chlorella virus 1 CPH expressed in Escherichia coli Rosetta 2 (DE3) cells assessed as Km(app) for ascorbate incubated for 16 hrs in presence of ascorbate, 2OG and Fe2 by MALDI TOF MS analysis
[16] = compound: C[C@H](NC(=O)[C@@H]1CCCN1)C(=O)N1C[C@H](O)C[C@H]1C(=O)N[C@@H](CCCCN)C(=O)N1CCC[C@H]1C(=O)N[C@@H](C)C(=O)N1CCC[C@H]1C(=O)N[C@@H](CCCCN)C(=O)O; test: as §4

O=C(O)CNC(=O)c1c(O)c2ccccc2n(Cc2ccccc2)c1=O
IC50 (Prolyl 4-hydroxylase): 8.5 µM | IC50 (Egl nine homolog 1): 0.022 µM

C[C@H](NC(=O)[C@@H]1CCCN1)C(=O)N1C[C@H](O)C[C@H]1C(=O)N[C@@H](CCCCN)C(=O)N1CCC[C@H]1C(=O)N[C@@H](C)C(=O)N1CCC[C@H]1C(=O)N[C@@H](CCCCN)C(=O)O (H-PA[Hyp]KPAPK-OH)
Activity [1]: Active | Activity [2]: inactive | Activity [3]: inactive | Activity [4]: inactive

Cc1nc(C(=O)NCC(=O)O)c(O)c2ccc(Oc3ccccc3)cc12 [ROXADUSTAT]
IC50 (Prolyl 4-hydroxylase): 5 µM | Ki (Prolyl 4-hydroxylase): 1.07 µM | IC50 [5]: > 100 µM | IC50 [6]: < 1 µM

H-PAPKPAPK-OH
Activity [7]: inactive | Activity [8]: Active

B1: Prolyl 4-hydroxylase (Paramecium bursaria Chlorella virus 1), Q84406 (protein)
chain: T1 sequence (Q84406 whole entry)
kcat [9]: 52.1 s⁻¹ | Km [10]: 230 µM | Km [11]: 1.1 µM | Km [12]: 0.9 µM | Km [13]: 27.4 µM | Km [14]: 29.5 µM | Km [15]: 13.8 µM | Km [16]: 1.7 µM
